In patent publication US10526327B2, “Histone demethylase inhibitors” (CELGENE QUANTICEL RESEARCH, INC., priority 2013, dated 2020):

Molecular target: T1, Jarid1A (Homo sapiens, UniProt P29375)
T1 construct: purchased BPS Bioscience 50110
T1 sequence (P29375 1-1090): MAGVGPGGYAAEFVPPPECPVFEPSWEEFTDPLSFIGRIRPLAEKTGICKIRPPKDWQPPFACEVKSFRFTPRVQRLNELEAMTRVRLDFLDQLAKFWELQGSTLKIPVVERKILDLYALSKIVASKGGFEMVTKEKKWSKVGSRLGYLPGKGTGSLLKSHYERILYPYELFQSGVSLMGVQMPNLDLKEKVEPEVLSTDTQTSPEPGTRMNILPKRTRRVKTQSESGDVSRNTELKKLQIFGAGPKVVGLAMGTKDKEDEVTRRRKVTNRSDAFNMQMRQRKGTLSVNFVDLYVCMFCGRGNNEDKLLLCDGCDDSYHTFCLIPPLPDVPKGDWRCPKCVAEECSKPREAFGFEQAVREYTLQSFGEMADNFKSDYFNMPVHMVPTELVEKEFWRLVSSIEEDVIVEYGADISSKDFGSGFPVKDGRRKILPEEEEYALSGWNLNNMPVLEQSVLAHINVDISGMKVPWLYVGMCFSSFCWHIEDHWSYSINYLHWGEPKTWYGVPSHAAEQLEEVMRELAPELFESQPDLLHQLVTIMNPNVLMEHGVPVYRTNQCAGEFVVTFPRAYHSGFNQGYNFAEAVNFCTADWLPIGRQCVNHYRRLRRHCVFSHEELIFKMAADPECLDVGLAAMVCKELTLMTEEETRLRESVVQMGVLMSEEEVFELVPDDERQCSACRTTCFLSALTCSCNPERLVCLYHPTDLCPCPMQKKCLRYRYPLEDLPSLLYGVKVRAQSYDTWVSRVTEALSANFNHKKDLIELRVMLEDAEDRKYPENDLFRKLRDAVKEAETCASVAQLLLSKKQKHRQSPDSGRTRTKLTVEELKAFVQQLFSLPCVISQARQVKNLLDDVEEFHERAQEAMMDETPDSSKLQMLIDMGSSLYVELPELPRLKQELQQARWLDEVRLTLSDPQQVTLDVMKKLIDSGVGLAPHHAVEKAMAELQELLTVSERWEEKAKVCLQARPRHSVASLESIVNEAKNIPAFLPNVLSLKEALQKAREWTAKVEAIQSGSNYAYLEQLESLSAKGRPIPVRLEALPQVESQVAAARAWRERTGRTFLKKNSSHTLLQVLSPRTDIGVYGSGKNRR
Test: Jarid1A in vitro enzyme inhibition assay (TR-FRET)
Assay type: biochemical
Source text: This assay determines the ability of a test compound to inhibit Jarid1A, Jarid1B, and JMJD2C demethylase activity. Baculovirus expressed Jarid1A (GenBank Accession #NM_001042603, AA1-1090) was purchased from BPS Bioscience (Cat#50110). Baculovirus expressed Jarid1B (GenBank Accession #NM_006618, AA 2-751) was purchased from BPS Bioscience (Cat #50121) or custom made by MolecularThroughput. Baculovirus expressed JMJD2C (GenBank Accession #BC143571, AA 2-372) was purchased from BPS Bioscience (Cat#50105).
The enzymatic assay of Jarid1A activity is based upon Time Resolved-Fluorescence Resonance Energy Transfer (TR-FRET) detection. The ability of test compounds to inhibit the activity of Jarid1A was determined in 384-well plate format under the following reaction conditions: 1 nM Jarid1A, 300 nM H3K4me3-biotin labeled peptide (Anaspec cat #64357), 2 μM alpha-ketoglutaric acid in assay buffer of 50 mM HEPES, pH7.3, 0.005% Brij35, 0.5 mM TCEP, 0.2 mg/ml BSA, 50 μM sodium L-ascorbate, and 2 μM ammonium iron(II) sulfate. Reaction product was determined quantitatively by TR-FRET after the addition of detection reagent Phycolink Streptavidin-allophycocyanin (Prozyme) and Europium-anti-mono-or di-methylated histone H3 lysine 4 (H3K4me1-2) antibody (PerkinElmer) in the presence of 5 mM EDTA in LANCE detection buffer (PerkinElmer) at a final concentration of 25 nM and 1 nM, respectively.
The assay reaction was initiated by the following: 2 μl of the mixture of 900 nM H3K4me3-biotin labeled peptide and 6 μM alpha-ketoglutaric acid with 2 μl of 11-point serial diluted inhibitor in 3% DMSO was added to each well of plate, followed by the addition of 2 μl of 3 nM Jarid1A to initiate the reaction. The reaction mixture was incubated at room temperature for 30 minutes, and terminated by the addition of 6 μl of 5 mM EDTA in LANCE detection buffer containing 50 nM Phycolink Streptavidin-allophycocyanin and 2 nM Europium-anti-H3K4me1-2 antibody. Plates were read by EnVisionMultilabel Reader in TR-FRET mode (excitation at 320 nm, emission at 615 nm and 665 nm) after 1 hour incubation at room temperature. A ratio was calculated (665/615) for each well and fitted to determine inhibition constant (IC50).

Row | Compound | IC50
1 | OCCOc1nc(O)c2ccncc2n1 [Example 3, 2-(2-hydroxyethoxy)pyrido[3,4-d]pyrimidin-4-ol] | ≤ 100 nM
2 | CCC(C)Oc1nc(O)c2ccncc2n1 (stereo not shown) [Example 9, 2-butan-2-yloxy-3H-pyrido[3,4-d]pyrimidin-4-one] | 1000 to 10000 nM
3 | COc1ccc(Oc2nc(O)c3ccncc3n2)cc1OC [Example 38, 2-(3,4-dimethoxyphenoxy)pyrido[3,4-d]pyrimidin-4-ol] | ≤ 100 nM
4 | Oc1nc(Oc2cccc(F)c2F)nc2cnccc12 [Example 42, 2-(2,3-difluorophenoxy)pyrido[3,4-d]pyrimidin-4-ol] | ≤ 100 nM
5 | CC(C)n1cc(Oc2nc3cnccc3c(=O)[nH]2)cn1 [Example 63, 2-{[1-(propan-2-yl)-1H-pyrazol-4-yl]oxy}pyrido[3,4-d]pyrimidin-4-ol] | ≤ 100 nM
6 | COc1nc(O)c2ccnc(-c3cn(C)cn3)c2n1 [Example 68, 2-methoxy-8-(1-methyl-1H-imidazol-4-yl)pyrido[3,4-d]pyrimidin-4-ol] | ≤ 100 nM
7 | CN(C)CCOc1nc(O)c2ccnc(-c3cn(C)cn3)c2n1 [Example 76, 2-[2-(dimethylamino)ethoxy]-8-(1-methylimidazol-4-yl)pyrido[3,4-d]pyrimidin-4-ol] | 100 to 1000 nM
8 | Cn1cnc(-c2nccc3c(O)nc(OCC(F)F)nc23)c1 [Example 77, 2-(2,2-difluoroethoxy)-8-(1-methylimidazol-4-yl)pyrido[3,4-d]pyrimidin-4-ol] | ≤ 100 nM
9 | Cn1cnc(-c2nccc3c(O)nc(OCCC4CC4)nc23)c1 [Example 78, 2-(2-cyclopropylethoxy)-8-(1-methylimidazol-4-yl)pyrido[3,4-d]pyrimidin-4-ol] | ≤ 100 nM
10 | Cn1cnc(-c2nccc3c(O)nc(Oc4cnn(Cc5ccccc5)c4)nc23)c1 [Example 79, 2-(1-benzylpyrazol-4-yl)oxy-8-(1-methylimidazol-4-yl)pyrido[3,4-d]pyrimidin-4-ol] | ≤ 100 nM
11 | CC(C)CCn1cc(Oc2nc(O)c3ccnc(-c4cn(C)cn4)c3n2)cn1 [Example 80, 2-[1-(3-methylbutyl)pyrazol-4-yl]oxy-8-(1-methylimidazol-4-yl)pyrido[3,4-d]pyrimidin-4-ol] | ≤ 100 nM
12 | Cn1cnc(-c2nccc3c(O)nc(Oc4ccc(F)c(F)c4)nc23)c1 [Example 81, 2-(3,4-difluorophenoxy)-8-(1-methylimidazol-4-yl)pyrido[3,4-d]pyrimidin-4-ol] | ≤ 100 nM
13 | COCCOc1ccc(Oc2nc(O)c3ccnc(-c4cn(C)cn4)c3n2)cc1 [Example 82, 2-[4-(2-methoxyethoxy)phenoxy]-8-(1-methylimidazol-4-yl)pyrido[3,4-d]pyrimidin-4-ol] | ≤ 100 nM
14 | Cn1cnc(-c2nccc3c(O)nc(Oc4ccc5cnn(C)c5c4)nc23)c1 [Example 83, 8-(1-methylimidazol-4-yl)-2-(1-methylindazol-6-yl)oxypyrido[3,4-d]pyrimidin-4-ol] | ≤ 100 nM
15 | CCn1ncc2ccc(Oc3nc(O)c4ccnc(-c5cn(C)cn5)c4n3)cc21 [Example 84, 2-(1-ethylindazol-6-yl)oxy-8-(1-methylimidazol-4-yl)pyrido[3,4-d]pyrimidin-4-ol] | ≤ 100 nM
16 | Cc1nn(C)c2cc(Oc3nc(O)c4ccnc(-c5cn(C)cn5)c4n3)ccc12 [Example 85, 2-(1,3-dimethylindazol-6-yl)oxy-8-(1-methylimidazol-4-yl)pyrido[3,4-d]pyrimidin-4-ol] | ≤ 100 nM

The next lines start with the values.

Row | IC50 | Compound
17 | 100 to 1000 nM | Oc1nc(OC2CCCC2)nc2cnccc12 [Example 6, 2-cyclopentyloxy-3H-pyrido[3,4-d]pyrimidin-4-one]
18 | ≤ 100 nM | COc1nc(O)c2ccncc2n1 [Example 8, 2-methoxypyrido[3,4-d]pyrimidin-4-ol]
19 | ≤ 100 nM | CC(C)(C)OC(=O)Nc1cccc(Oc2nc(O)c3ccncc3n2)c1 [Example 36, tert-butyl N-[3-(4-hydroxypyrido[3,4-d]pyrimidin-2-yl)oxyphenyl]carbamate]
20 | ≤ 100 nM | CC(C)c1cccc(Oc2nc(O)c3ccncc3n2)c1 [Example 39, 2-(3-propan-2-ylphenoxy)pyrido[3,4-d]pyrimidin-4-ol]
21 | ≤ 100 nM | COc1c(F)cc(Oc2nc(O)c3ccncc3n2)cc1F [Example 43, 2-(3,5-difluoro-4-methoxyphenoxy)pyrido[3,4-d]pyrimidin-4-ol]
22 | ≤ 100 nM | Oc1nc(Oc2ccccc2F)nc2cnccc12 [Example 46, 2-(2-fluorophenoxy)pyrido[3,4-d]pyrimidin-4-ol]
23 | ≤ 100 nM | CCCc1cccc(Oc2nc(O)c3ccncc3n2)c1 [Example 58, 2-(3-propylphenoxy)pyrido[3,4-d]pyrimidin-4-ol]
24 | ≤ 100 nM | CN(C)c1ccc(Oc2nc(O)c3ccncc3n2)cc1 [Example 59, 2-[4-(dimethylamino)phenoxy]pyrido[3,4-d]pyrimidin-4-ol]
25 | ≤ 100 nM | O=C(c1cc(F)cc(Oc2nc(O)c3ccncc3n2)c1)N1CCOCC1 [Example 60]
26 | ≤ 100 nM | COCCn1ncc2ccc(Oc3nc(O)c4ccncc4n3)cc21 [Example 61, 2-{[1-(2-methoxyethyl)-1H-indazol-6-yl]oxy}pyrido[3,4-d]pyrimidin-4-ol]
27 | ≤ 100 nM | CCn1cc(Oc2nc(O)c3ccncc3n2)cn1 [Example 62, 2-[(1-ethyl-1H-pyrazol-4-yl)oxy]pyrido[3,4-d]pyrimidin-4-ol]
28 | ≤ 100 nM | COCCn1cc(Oc2nc(O)c3ccncc3n2)cn1 [Example 64, 2-{[1-(2-methoxyethyl)-1H-pyrazol-4-yl]oxy}pyrido[3,4-d]pyrimidin-4-ol]
29 | ≤ 100 nM | COCCCn1cc(Oc2nc(O)c3ccncc3n2)cn1 [Example 65, 2-{[1-(3-methoxypropyl)-1H-pyrazol-4-yl]oxy}pyrido[3,4-d]pyrimidin-4-ol]
30 | ≤ 100 nM | Oc1nc(Oc2cnn(C3CCOCC3)c2)nc2cnccc12 [Example 67, 2-{[1-(tetrahydro-2H-pyran-4-yl)-1H-pyrazol-4-yl]oxy}pyrido[3,4-d]pyrimidin-4-ol]
31 | ≤ 100 nM | CC(=O)N1CCC(n2cc(Oc3nc(O)c4ccncc4n3)cn2)CC1 [Example 90, 1-[4-[4-(4-hydroxypyrido[3,4-d]pyrimidin-2-yl)oxypyrazol-1-yl]piperidin-1-yl]ethanone]
32 | ≤ 100 nM | C=CC(=O)N1CCC(n2cc(Oc3nc(O)c4ccncc4n3)cn2)CC1 [Example 91, 1-[4-[4-(4-hydroxypyrido[3,4-d]pyrimidin-2-yl)oxypyrazol-1-yl]piperidin-1-yl]prop-2-en-1-one]
33 | ≤ 100 nM | O=C(C1CC1)N1CCC(n2cc(Oc3nc(O)c4ccncc4n3)cn2)CC1 [Example 92, cyclopropyl-[4-[4-(4-hydroxypyrido[3,4-d]pyrimidin-2-yl)oxypyrazol-1-yl]piperidin-1-yl]methanone]
34 | ≤ 100 nM | O=C(c1ccc(F)cc1)N1CCC(n2cc(Oc3nc(O)c4ccncc4n3)cn2)CC1 [Example 93, (4-fluorophenyl)-[4-[4-(4-hydroxypyrido[3,4-d]pyrimidin-2-yl)oxypyrazol-1-yl]piperidin-1-yl]methanone]
